Experimental data taken from US20220105058A1, “USE OF 3-O-SULFAMATE-16,16-DIMETHYL-D-HOMOEQUILENIN TO TREAT ONCOLOGICAL DISEASES” (priority 2018, published 2022).

Legend:
estrogen receptors = assay: study of binding to the estrogen receptors; conditions: concentrations of −0.001 and 0.01, 0.1 and 1.0 μmol/ml
[1] = test system: Normal human dermal fibroblasts (HDF); assay: growth of normal human skin fibroblasts (negative control); assay type: cell-based; conditions: concentration of 20 μg/ml
Experimental: The study analysis was carried out on an passaged MCF-7 human cells culture culture (breast adenocarcinoma). Normal human dermal fibroblasts (HDF) of early passages were used as a negative control. The cells were cultivated in Carrel vials in DMEM/F12 medium (Biolot) with 1.0% of antibiotic-free fetal bovine embryonic serum (Biolot) added in the 5% CO2 atmosphere, at 37° C.
The cells were seeded on Carrel vials at 50×10^4 cells per flask. To study the proliferative activity of the cells under conditions of sulfatase inhibition, 24 hours after seeding the culture medium was […], and then these tumor cell lines were incubated for various periods of time (24 to 72 hrs). The inhibitor was dissolved in DMSO. […] To exclude the cytotoxic effect of DMSO, a control sample comprising DMSO without sulfatase inhibitor was prepared. To exclude nonspecific detrimental effects of the compounds, normal human skin fibroblasts were used. Then the cells were detached with the versene-trypsin solution (Biolot), plated onto Carrel vials containing a fresh complete culture medium. The cells were counted when untreated control cells reached the maximum cell density per unit of surface area of a culture flask (monolayer), and their number was set as 100%. The proliferative activity of all of the studied cell cultures exposed to sulfatase inhibitors was determined in triplicate.

[2] = test system: gastric adenocarcinoma SNU638; assay: activity against SNU638; assay type: cell-based; conditions: Homo sapiens, SNU-638
[3] = test system: chronic myelogenous leukemia cells (K562); assay: activity against K562; assay type: cell-based
endometrium = assay: effects on the endometrium (summary statement)

CC1(C)CC(=O)[C@@]2(C)CCc3c(ccc4cc(OS(N)(=O)=O)ccc34)[C@@H]2C1 [medicament, 3-O-sulfamate-16,16-dimethyl-D-homoequilenin]
hormone activity (estrogen receptors): lacks hormone activity | growth of human skin fibroblasts [1]: does not influence the growth | IC50 [2]: 22.8 µM | activity against K562 cells [3]: active | negative effects on the endometrium (endometrium): absence of negative effects
